In patent publication US8680139B2 (Progenra, priority 2009, dated 2014):
pEC50: −log10 of the molar value.

Biological target: T1, USP7 (Homo sapiens, UniProt Q93009)
T1 construct: full length human USP7 protein; made in house
Test: USP7, Ub-PLA2 assay
Format: biochemical
Settings: Ub-PLA2 / NBD C6-HPC fluorescence, 30 minute preincubation; read-out: EC50 for inhibition of USP7
In short: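 Activity read as fluorescence in a Ub-PLA2 format, with percent inhibition calculated within each plate against DMSO (uninhibited) and NEM (background) wells. Vehicle was 100% DMSO.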

T1 sequence (Q93009 whole entry): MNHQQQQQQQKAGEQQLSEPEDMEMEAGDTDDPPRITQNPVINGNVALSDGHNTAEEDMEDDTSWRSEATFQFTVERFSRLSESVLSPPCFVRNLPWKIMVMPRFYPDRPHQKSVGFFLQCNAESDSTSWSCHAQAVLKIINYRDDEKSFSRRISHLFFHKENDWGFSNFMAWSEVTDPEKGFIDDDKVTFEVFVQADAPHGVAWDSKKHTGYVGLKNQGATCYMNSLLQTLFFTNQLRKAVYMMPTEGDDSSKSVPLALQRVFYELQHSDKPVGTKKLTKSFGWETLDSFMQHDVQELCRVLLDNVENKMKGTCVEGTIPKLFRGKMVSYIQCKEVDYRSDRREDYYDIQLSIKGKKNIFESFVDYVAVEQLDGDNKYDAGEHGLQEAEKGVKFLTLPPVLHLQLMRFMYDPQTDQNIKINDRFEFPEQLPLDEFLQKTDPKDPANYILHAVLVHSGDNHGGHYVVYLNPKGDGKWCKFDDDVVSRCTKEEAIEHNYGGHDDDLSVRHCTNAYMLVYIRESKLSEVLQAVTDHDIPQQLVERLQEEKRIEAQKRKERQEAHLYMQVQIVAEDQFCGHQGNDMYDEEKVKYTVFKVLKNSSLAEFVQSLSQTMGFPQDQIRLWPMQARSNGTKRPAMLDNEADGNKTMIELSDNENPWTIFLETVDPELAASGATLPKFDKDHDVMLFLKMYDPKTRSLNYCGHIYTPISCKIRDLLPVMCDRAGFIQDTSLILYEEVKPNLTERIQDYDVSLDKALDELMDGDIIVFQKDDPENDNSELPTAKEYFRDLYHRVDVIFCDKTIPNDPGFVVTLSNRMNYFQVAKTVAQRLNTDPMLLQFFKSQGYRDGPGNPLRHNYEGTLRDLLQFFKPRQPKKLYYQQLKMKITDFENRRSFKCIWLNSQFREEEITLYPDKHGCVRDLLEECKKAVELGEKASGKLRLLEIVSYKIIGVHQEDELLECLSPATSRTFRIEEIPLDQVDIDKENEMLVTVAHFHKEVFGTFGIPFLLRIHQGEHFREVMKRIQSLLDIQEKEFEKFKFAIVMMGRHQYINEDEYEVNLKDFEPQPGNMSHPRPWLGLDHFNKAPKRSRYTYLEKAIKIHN

pEC50	Structure (SMILES)
≥ 6.00	COc1ccc(Cl)cc1NC(=O)c1cc([N+](=O)[O-])c(Sc2c(Cl)cncc2Cl)s1 [Example 130, N-(5-chloro-2-methoxyphenyl)-5-((3,5-dichloropyridin-4-yl)thio)-4-nitrothiophene-2-carboxamide]
≥ 6.00	CC(O)c1ccc(NC(=O)c2cc([N+](=O)[O-])c(Sc3c(Cl)cncc3Cl)s2)cc1 (stereo not drawn) [Example 131, 5-((3,5-dichloropyridin-4-yl)thio)-N-(4-(1-hydroxyethyl)phenyl)-4-nitrothiophene-2-carboxamide]
≥ 6.00	COc1ccc(NC(=O)c2cc([N+](=O)[O-])c(Sc3c(Cl)cncc3Cl)s2)c(C)c1 [Example 132, 5-((3,5-dichloropyridin-4-yl)thio)-N-(4-methoxy-2-methylphenyl)-4-nitrothiophene-2-carboxamide]
≥ 6.00	O=C(Nc1cccc(Br)c1)c1cc([N+](=O)[O-])c(Sc2c(Cl)cncc2Cl)s1 [Example 133, N-(3-bromophenyl)-5-((3,5-dichloropyridin-4-yl)thio)-4-nitrothiophene-2-carboxamide]
≥ 6.00	O=C(Nc1ccccc1Cl)c1cc([N+](=O)[O-])c(Sc2c(Cl)cncc2Cl)s1 [Example 134, N-(2-chlorophenyl)-5-((3,5-dichloropyridin-4-yl)thio)-4-nitrothiophene-2-carboxamide]
≥ 6.00	O=C(Nc1c(Cl)cccc1Cl)c1cc([N+](=O)[O-])c(Sc2c(Cl)cncc2Cl)s1 [Example 135, N-(2,6-dichlorophenyl)-5-((3,5-dichloropyridin-4-yl)thio)-4-nitrothiophene-2-carboxamide]
≥ 6.00	O=C(Nc1ccc(F)cc1)c1cc([N+](=O)[O-])c(Sc2c(Cl)cncc2Cl)s1 [Example 136, 5-((3,5-dichloropyridin-4-yl)thio)-N-(4-fluorophenyl)-4-nitrothiophene-2-carboxamide]
≥ 6.00	O=C(Nc1ccc(F)c(Cl)c1)c1cc([N+](=O)[O-])c(Sc2c(Cl)cncc2Cl)s1 [Example 137, N-(3-chloro-4-fluorophenyl)-5-((3,5-dichloropyridin-4-yl)thio)-4-nitrothiophene-2-carboxamide]
≥ 6.00	O=C(Nc1cccc(F)c1)c1cc([N+](=O)[O-])c(Sc2c(Cl)cncc2Cl)s1 [Example 138, 5-((3,5-dichloropyridin-4-yl)thio)-N-(3-fluorophenyl)-4-nitrothiophene-2-carboxamide]
≥ 6.00	O=C(Nc1ccc(F)cc1C(F)(F)F)c1cc([N+](=O)[O-])c(Sc2c(Cl)cncc2Cl)s1 [Example 139, 5-((3,5-dichloropyridin-4-yl)thio)-N-(4-fluoro-2-(trifluoromethyl)phenyl)-4-nitrothiophene-2-carboxamide]
≥ 6.00	O=C(Nc1ccc(F)c(C(F)(F)F)c1)c1cc([N+](=O)[O-])c(Sc2c(Cl)cncc2Cl)s1 [Example 140, 5-((3,5-dichloropyridin-4-yl)thio)-N-(4-fluoro-3-(trifluoromethyl)phenyl)-4-nitrothiophene-2-carboxamid]
≥ 6.00	O=C(Nc1ccc(Cl)cc1Cl)c1cc([N+](=O)[O-])c(Sc2c(Cl)cncc2Cl)s1 [Example 141, N-(2,4-dichlorophenyl)-5-((3,5-dichloropyridin-4-yl)thio)-4-nitrothiophene-2-carboxamide]
≥ 6.00	O=C(Nc1cccc(Cl)c1)c1cc([N+](=O)[O-])c(Sc2c(Cl)cncc2Cl)s1 [Example 142, N-(3-chlorophenyl)-5-((3,5-dichloropyridin-4-yl)thio)-4-nitrothiophene-2-carboxamide]
≥ 6.00	O=C(Nc1ccc(F)cc1F)c1cc([N+](=O)[O-])c(Sc2c(Cl)cncc2Cl)s1 [Example 143, 5-((3,5-dichloropyridin-4-yl)thio)-N-(2,4-difluorophenyl)-4-nitrothiophene-2-carboxamide]
≥ 6.00	O=C(NCc1cccc(OC(F)F)c1)c1cc([N+](=O)[O-])c(Sc2c(Cl)cncc2Cl)s1 [Example 145, 5-((3,5-dichloropyridin-4-yl)thio)-N-(3-(difluoromethoxy)benzyl)-4-nitrothiophene-2-carboxamide]
≥ 6.00	CN(C)c1cccc(CNC(=O)c2cc([N+](=O)[O-])c(Sc3c(Cl)cncc3Cl)s2)c1 [Example 146, 5-((3,5-dichloropyridin-4-yl)thio)-N-(3-(dimethylamino)benzyl)-4-nitrothiophene-2-carboxamide]
≥ 6.00	O=C(NCc1ccc2c(c1)OCCO2)c1cc([N+](=O)[O-])c(Sc2c(Cl)cncc2Cl)s1 [Example 147, 5-((3,5-dichloropyridin-4-yl)thio)-N-((2,3-dihydrobenzo[b][1,4]dioxin-6-yl)methyl)-4-nitrothiophene-2-carboxamide]
≥ 6.00	O=C(NCc1cccc(C(F)(F)F)c1)c1cc([N+](=O)[O-])c(Sc2c(Cl)cncc2Cl)s1 [Example 148, 5-((3,5-dichloropyridin-4-yl)thio)-4-nitro-N-(3-(trifluoromethyl)benzyl)thiophene-2-carboxamide]

pEC50	Structure (SMILES)
≥ 6.00	CCOc1cccc(CNC(=O)c2cc([N+](=O)[O-])c(Sc3c(Cl)cncc3Cl)s2)c1 [Example 149, 5-((3,5-dichloropyridin-4-yl)thio)-N-(3-ethoxybenzyl)-4-nitrothiophene-2-carboxamide]
≥ 6.00	Cc1cccc(CNC(=O)c2cc([N+](=O)[O-])c(Sc3c(Cl)cncc3Cl)s2)c1 [Example 150, 5-((3,5-dichloropyridin-4-yl)thio)-N-(3-methylbenzyl)-4-nitrothiophene-2-carboxamide]
≥ 6.00	O=C(NCc1ccc2c(c1)OCO2)c1cc([N+](=O)[O-])c(Sc2c(Cl)cncc2Cl)s1 [Example 151, N-(benzo[d][1,3]dioxol-5-ylmethyl)-5-((3,5-dichloropyridin-4-yl)thio)-4-nitrothiophene-2-carboxamide]
≥ 6.00	O=C(Nc1ccc(Br)cc1)c1cc([N+](=O)[O-])c(Sc2c(Cl)cncc2Cl)s1 [Example 152, N-(4-bromophenyl)-5-((3,5-dichloropyridin-4-yl)thio)-4-nitrothiophene-2-carboxamide]
≥ 6.00	CC(C)(C)NC(=O)c1cc([N+](=O)[O-])c(Sc2c(Cl)cncc2Cl)s1 [Example 153, N-(tert-butyl)-5-((3,5-dichloropyridin-4-yl)thio)-4-nitrothiophene-2-carboxamide]
≥ 6.00	O=C(NC1CCCCC1)c1cc([N+](=O)[O-])c(Sc2c(Cl)cncc2Cl)s1 [Example 154, N-cyclohexyl-5-((3,5-dichloropyridin-4-yl)thio)-4-nitrothiophene-2-carboxamide]
≥ 6.00	COc1cccc(NC(=O)c2cc([N+](=O)[O-])c(Sc3c(Cl)cncc3Cl)s2)c1 [Example 156, 5-((3,5-dichloropyridin-4-yl)thio)-N-(3-methoxyphenyl)-4-nitrothiophene-2-carboxamide]
≥ 6.00	O=C(Nc1ccc2c(c1)OCO2)c1cc([N+](=O)[O-])c(Sc2c(Cl)cncc2Cl)s1 [Example 158, N-(benzo[d][1,3]dioxol-5-yl)-5-((3,5-dichloropyridin-4-yl)thio)-4-nitrothiophene-2-carboxamide]
≥ 6.00	O=C(Nc1cc(F)ccc1F)c1cc([N+](=O)[O-])c(Sc2c(Cl)cncc2Cl)s1 [Example 159, 5-((3,5-dichloropyridin-4-yl)thio)-N-(2,5-difluorophenyl)-4-nitrothiophene-2-carboxamide]
≥ 6.00	O=C(NCCN1CCCCC1)c1cc([N+](=O)[O-])c(Sc2c(Cl)cncc2Cl)s1 [Example 161, 5-((3,5-dichloropyridin-4-yl)thio)-4-nitro-N-(2-(piperidin-1-yl)ethyl)thiophene-2-carboxamide]
≥ 6.00	O=C(NCc1ccc(Cl)nc1)c1cc([N+](=O)[O-])c(Sc2c(Cl)cncc2Cl)s1 [Example 162, N-((6-chloropyridin-3-yl)methyl)-5-((3,5-dichloropyridin-4-yl)thio)-4-nitrothiophene-2-carboxamide]
≥ 6.00	COC(=O)c1ccc(CNC(=O)c2cc([N+](=O)[O-])c(Sc3c(Cl)cncc3Cl)s2)cc1 [Example 163, methyl 4-((5-((3,5-dichloropyridin-4-yl)thio)-4-nitrothiophene-2-carboxamido)methyl)benzoate]
≥ 6.00	O=C(Nc1cc(C(F)(F)F)n[nH]1)c1cc([N+](=O)[O-])c(Sc2c(Cl)cncc2Cl)s1 [Example 164, 5-((3,5-dichloropyridin-4-yl)thio)-4-nitro-N-(3-(trifluoromethyl)-1H-pyrazol-5-yl)thiophene-2-carboxamide]
≥ 6.00	O=C(NCc1ccc(O)cc1)c1cc([N+](=O)[O-])c(Sc2c(Cl)cncc2Cl)s1 [Example 165, 5-((3,5-dichloropyridin-4-yl)thio)-N-(4-hydroxybenzyl)-4-nitrothiophene-2-carboxamide]
≥ 6.00	Cn1nccc1NC(=O)c1cc([N+](=O)[O-])c(Sc2c(Cl)cncc2Cl)s1 [Example 167, 5-((3,5-dichloropyridin-4-yl)thio)-N-(1-methyl-1H-pyrazol-5-yl)-4-nitrothiophene-2-carboxamide]
≥ 6.00	COc1cc(NC(=O)c2cc([N+](=O)[O-])c(Sc3c(Cl)cncc3Cl)s2)cc(OC)c1OC [Example 169, 5-((3,5-dichloropyridin-4-yl)thio)-4-nitro-N-(3,4,5-trimethoxyphenyl)thiophene-2-carboxamide]
≥ 6.00	COc1ccc(NC(=O)c2cc([N+](=O)[O-])c(Sc3c(Cl)cncc3Cl)s2)cc1OC [Example 170, 5-((3,5-dichloropyridin-4-yl)thio)-4-nitro-N-(3,4-dimethoxyphenyl)thiophene-2-carboxamide]
≥ 6.00	CSc1ccc(NC(=O)c2cc([N+](=O)[O-])c(Sc3c(Cl)cncc3Cl)s2)cc1 [Example 174, 5-((3,5-dichloropyridin-4-yl)thio)-N-(4-(methylthio)phenyl)-4-nitrothiophene-2-carboxamide]
